Earlier results on 3 compounds are cited in PMC9817006 (Journal of psychopharmacology (Oxford, England), 2022).

The subject of one data set is C57BL/6J mice. The conditions noted are these: low and high doses, ref Akinola et al., 2019; cited from earlier work.
For data set [1] the following is noted: systemic administration; ref Rueter et al., 2006; cited from earlier work.
The next data set relates to rats. Particulars: ref Freitas et al., 2016; cited from earlier work.

As for `CN1CCC[C@H]1c1cccnc1` [nicotine], in the data set on C57BL/6J mice, the “Locomotor sensitization (in words)” value was “lack of locomotor sensitization”. As for `c1cncc(OC[C@@H]2CCN2)c1` [A-85380], the “Antinociception and anti-allodynic activity (in words)” value in data set [1] is “showing efficacy in multiple in vivo assays of antinociception, and anti-allodynic activity after systemic administration”. dihydro-ß-erythroidine [DHßE]: the “Effect on 5IA-facilitated ICSS (in words)” value in the data set with rats is “blocked”.
